Here are results for 3 molecules from patent US8133506B2, “Drug delivery systems comprising weakly basic drugs and organic acids” (Aptalis Pharmatech, Inc., priority 2008, dated 2012).

Molecules are shown by their SMILES. In brackets after ≈: the same amount, converted by molar mass. Where a name gives a salt, the structure may show the parent alone. Read-outs that look alike come from different tables or passages of the source.

Series [1] can be described thus: Solubility in organic acid buffers (fumaric, aspartic, glutamic acid).
A short description of series [2]: pH-dependent solubility in aqueous buffer.
Series [3] in a line: physchem.
The conditions of series [4]: cited from earlier work.
Series [5] in a line: physchem. The source holds these as a separate data set.
For series [6] the following is noted: cited from earlier work. This is another data set of the same source.
The mark [7] stands for this setting: pH 6.8, aqueous buffer, solubility.

In general, solubility refers to how much of the substance goes into solution per volume.

Regarding `O=C1CN=C(c2ccccc2Cl)c2cc([N+](=O)[O-])ccc2N1` [Clonazepam], the solubility entry in series [1] (buffer at pH 2.3, higher concentration of fumaric acid) was “about 11.6 μg/mL”; in series [1] (buffer at pH 6.8, lower concentration of fumaric acid), around 6.9 µg/mL (≈ 21.9 µM); in series [1] (pH 2.3, aqueous buffer), 11.6 µg/mL (≈ 36.7 µM); in series [1] (pH 2.8, aqueous buffer) it was 10.3 µg/mL (≈ 32.6 µM); in series [1] (pH 3.2, aqueous buffer) it was 9.6 µg/mL (≈ 30.4 µM); in series [1] (pH 3.7, aqueous buffer), 9.8 µg/mL (≈ 31 µM). In addition, the solubility in series [1] (pH 5.5, aqueous buffer) is 290 µg/mL (≈ 919 µM); in series [2] (pH 2.2, aqueous buffer), 11.4 µg/mL (≈ 36.1 µM); in series [2] (pH 2.8, aqueous buffer), 10.2 µg/mL (≈ 32.3 µM); in series [2] (pH 3.2, aqueous buffer), 9.6 µg/mL (≈ 30.4 µM); in series [2] (pH 3.8, aqueous buffer) it was 9.2 µg/mL (≈ 29.1 µM); in series [2] (pH 4.2, aqueous buffer) it was 9.1 µg/mL (≈ 28.8 µM). For the same molecule, the solubility in series [2] (pH 4.8, aqueous buffer) was 8.6 µg/mL (≈ 27.2 µM); in series [2] (pH 5.4, aqueous buffer), 8.4 µg/mL (≈ 26.6 µM); in series [2] (pH 6.2, aqueous buffer), 8 µg/mL (≈ 25.3 µM); in series [2] (physiological pHs), “practically insoluble”.
Regarding `COc1cc(C(C)=O)ccc1OCCCN1CCC(c2noc3cc(F)ccc23)CC1` [Iloperidone], the solubility in the series “physchem [3]” (pH 1.2, simulated gastric fluid, Solubility of Iloperidone in Aqueous Buffer) is 3900 µg/mL (≈ 9140 µM); in “physchem [3]” (pH 3.01, aqueous buffer, Solubility of Iloperidone in Aqueous Buffer), 1440 µg/mL (≈ 3370 µM); in the series “physchem [3]” (pH 3.06, aqueous buffer, Solubility of Iloperidone in Aqueous Buffer), 917 µg/mL (≈ 2150 µM); in “physchem [3]” (pH 4.08, aqueous buffer, Solubility of Iloperidone in Aqueous Buffer), 681 µg/mL (≈ 1600 µM); in “physchem [3]” (pH 4.46, aqueous buffer, Solubility of Iloperidone in Aqueous Buffer) it was 586 µg/mL (≈ 1370 µM); in the series “physchem [3]” (pH 5.09, aqueous buffer, Solubility of Iloperidone in Aqueous Buffer) it was 341 µg/mL (≈ 800 µM). Besides, the solubility is 117 µg/mL (≈ 274 µM) in the series “physchem [3]” (pH 6.11, aqueous buffer, Solubility of Iloperidone in Aqueous Buffer); around 30 µg/mL (≈ 70.3 µM) in the series “physchem [3]” (setting [7]); 11 µg/mL (≈ 25.8 µM) in the series “physchem [3]” (pH 7.02, aqueous buffer, Solubility of Iloperidone in Aqueous Buffer); around 3000 µg/mL (≈ 7030 µM) in “physchem [3]” (simulated gastric fluid, solubility).
In the case of `Cc1nccn1CC1CCc2c(c3ccccc3n2C)C1=O` (stereo not drawn) [Ondansetron HCl, ondansetron hydrochloride], the solubility came out at 23300 µg/mL in “physchem [3]” (pH 2.2, aqueous buffer, Solubility of Ondansetron HCl in Aqueous Buffer); 25700 µg/mL in the series “physchem [3]” (pH 3.2, aqueous buffer, Solubility of Ondansetron HCl in Aqueous Buffer); 10900 µg/mL in the series “physchem [3]” (pH 4.2, aqueous buffer, Solubility of Ondansetron HCl in Aqueous Buffer); 3600 µg/mL in the series “physchem [3]” (pH 5, aqueous buffer, Solubility of Ondansetron HCl in Aqueous Buffer); 1700 µg/mL in the series “physchem [3]” (pH 5.6, aqueous buffer, Solubility of Ondansetron HCl in Aqueous Buffer); 400 µg/mL in “physchem [3]” (pH 6.2, aqueous buffer, Solubility of Ondansetron HCl in Aqueous Buffer). In addition, the solubility in the series “physchem [3]” (pH 6.8, aqueous buffer, Solubility of Ondansetron HCl in Aqueous Buffer) was 36 µg/mL; in “physchem [3]” (setting [7]), below 50 µg/mL; in the series “physchem [3]” (pH 7, aqueous buffer, Solubility of Ondansetron HCl in Aqueous Buffer), 25 µg/mL; in series [4] (low pH gastric fluids), “freely soluble”; in series [4] (pH >6), “practically insoluble”; in “physchem [5]” (pH 2.01, aqueous buffer) it was 26900 µg/mL. Also, the solubility worked out at 27000 µg/mL in “physchem [5]” (pH 2.14, aqueous buffer); 26100 µg/mL in “physchem [5]” (pH 2.4, aqueous buffer); 26200 µg/mL in the series “physchem [5]” (pH 2.75, aqueous buffer); 26000 µg/mL in “physchem [5]” (pH 3.49, aqueous buffer); 26100 µg/mL in the series “physchem [5]” (pH 4.05, aqueous buffer). Moreover, the elimination half-life entry in series [6] (average) is “approximately 3.8±1 hrs”. For the same molecule, the “absorption from the gastrointestinal tract” value in series [6] (in vivo) is “well absorbed”.
